# Target: human plasma kallikrein (Homo sapiens (Human), UniProt P03952)
# Test: In vitro enzyme inhibition of human plasma kallikrein (PFR-AMC cleavage)
# Format: biochemical
# Settings: Pro-Phe-Arg-AMC substrate, 37° C., read-out: hPK IC50
# Experimental: The ability of the compounds disclosed herein to inhibit human plasma kallikrein activity was quantified according to the procedures below.
# A 10 mM solution of the test compound was made in DMSO. […] A control tube containing only DMSO is included. 16 μL of each compound test solution was combined with 384 μL of assay buffer (50 mM Tris-HCl pH 7.5, 150 mM NaCl, 0.01% Triton X-100) to yield a “4× test compound buffer stock”.
# These solutions are hereby referred to as 4× hPK and 2×PFR-AMC, respectively.
# 50 μL was removed from this mixture and placed into duplicate wells on a Microfluor 1Black U-bottom microtiter plate (Thermo Scientific). This plate was incubated for 5 minutes at 37° C. To each well, 50 μL of pre-warmed 2×PFR-AMC was added to start the enzymatic reaction. Cleavage of PFR-AMC was monitored in a Biotek Synergy H4 reader set at 37° C. Readings are taken every 43 seconds for 1 hour. […] The IC50 is calculated using the Gen5 (Biotek Instruments).
# The ability of the compounds in Table 3 to inhibit human plasma kallikrein activity was determined.
# human plasma kallikrein, sequence (P03952 391-638): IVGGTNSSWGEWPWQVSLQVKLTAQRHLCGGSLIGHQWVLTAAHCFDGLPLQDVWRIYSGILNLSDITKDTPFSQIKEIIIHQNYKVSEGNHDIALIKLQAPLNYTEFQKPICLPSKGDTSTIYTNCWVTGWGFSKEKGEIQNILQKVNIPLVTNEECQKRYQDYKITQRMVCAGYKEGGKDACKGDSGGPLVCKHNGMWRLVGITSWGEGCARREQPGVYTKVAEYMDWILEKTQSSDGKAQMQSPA
# human plasma kallikrein, sequence (P03952 20-390 partner): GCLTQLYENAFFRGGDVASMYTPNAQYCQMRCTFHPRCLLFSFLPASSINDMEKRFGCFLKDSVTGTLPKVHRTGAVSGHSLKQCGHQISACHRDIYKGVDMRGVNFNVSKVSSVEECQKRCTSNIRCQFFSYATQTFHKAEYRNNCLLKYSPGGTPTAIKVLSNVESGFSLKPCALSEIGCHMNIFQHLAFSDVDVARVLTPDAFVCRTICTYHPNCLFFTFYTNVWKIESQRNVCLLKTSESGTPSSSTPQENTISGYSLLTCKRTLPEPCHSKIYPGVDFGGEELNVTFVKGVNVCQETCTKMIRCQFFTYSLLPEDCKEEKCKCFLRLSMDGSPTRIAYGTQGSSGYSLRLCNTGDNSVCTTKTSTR
row,Compound,IC50 [µM]
1,"COC(c1ccc2ncc(Cl)cc2c1)c1cc(C(=O)NCc2c(C)cc(N)nc2C)ccn1 (stereo not drawn) [Example 296, N-((6-amino-2,4-dimethylpyridin-3-yl)methyl)-2-((3-chloroquinolin-6-yl)(methoxy)methyl)isonicotinamide]",< 0.1
2,"NCc1ccc(CNC(=O)c2ccnc(Cc3ccc4ncc(Cl)cc4c3)c2)cn1 [Example 169, N-((6-(aminomethyl)pyridin-3-yl)methyl)-2-((3-chloroquinolin-6-yl)methyl)isonicotinamide]",> 10
3,"Cc1nc2c(c(C)c1CNC(=O)c1ccnc(Cc3ccc4ncc(Cl)cc4c3)c1)CCN2 [Example 175, 2-((3-chloroquinolin-6-yl)methyl)-N-((4,6-dimethyl-2,3-dihydro-1H-pyrrolo[2,3-b]pyridin-5-yl)methyl)isonicotinamide]",< 0.1
4,"N-(6-amino-2,4-dimethyl-pyridin-3-ylmethyl)-2-(2-cyano-quinolin-6-ylmethyl)-isonicotinamide [Example 131]",< 0.1
5,"O=C(NCc1n[nH]c2ccc(Cl)cc12)c1ccnc(Cc2ccc3ncc(N4CCOCC4)cc3c2)c1 [Example 295, N-((5-chloro-1H-indazol-3-yl)methyl)-2-((3-morpholinoquinolin-6-yl)methyl)isonicotinamide]",1 to 10
6,"Cc1cc(N)nc(C)c1CNC(=O)c1ccnc(Cc2cc3cc(C(F)(F)F)ccc3[nH]2)c1 [Example 151, N-((6-amino-2,4-dimethylpyridin-3-yl)methyl)-2-((5-(trifluoromethyl)-1H-indol-2-yl)methyl)isonicotinamide]",0.1 to 1
7,"Cc1nc(N)ccc1CNC(=O)c1ccnc(Cc2cc(N)c3ncc(Cl)cc3c2)c1 [Example 218, N-((6-amino-2-methylpyridin-3-yl)methyl)-2-((8-amino-3-chloroquinolin-6-yl)methyl)isonicotinamide]",< 0.1
8,"Cc1cc(N)nc(C)c1CNC(=O)c1ccnc(Cc2ccc3ncc(C(C)O)cc3c2)c1 (stereo not drawn) [Example 262, N-((6-amino-2,4-dimethylpyridin-3-yl)methyl)-2-((3-(1-hydroxyethyl)quinolin-6-yl)methyl)isonicotinamide]",< 0.1
9,"O=C(NCc1cc2cc[nH]c2cc1F)c1ccnc(Cc2ccc3ncc(Cl)cc3c2)c1 [Example 259, 2-((3-chloroquinolin-6-yl)methyl)-N-((6-fluoro-1H-indol-5-yl)methyl)isonicotinamide]",0.1 to 1
10,"O=C(NCc1n[nH]c2ccc(Cl)cc12)c1ccnc(Cc2ccc3ncc(N4CCNCC4)cc3c2)c1 [Example 312, N-((5-chloro-1H-indazol-3-yl)methyl)-2-((3-(piperazin-1-yl)quinolin-6-yl)methyl)isonicotinamide]",1 to 10
11,"Cc1nc(N)ccc1CNC(=O)c1ccnc(Cc2cnc3cc(F)c(Cl)cc3c2)c1 [Example 227, N-((6-amino-2-methylpyridin-3-yl)methyl)-2-((6-chloro-7-fluoroquinolin-3-yl)methyl)isonicotinamide]",< 0.1
12,"O=C(NCc1cnc2[nH]cc(Cl)c2c1)c1ccnc(Cc2ccc3ncc(N4CCCCC4)cc3c2)c1 [Example 306, N-((3-chloro-1H-pyrrolo[2,3-b]pyridin-5-yl)methyl)-2-((3-(piperidin-1-yl)quinolin-6-yl)methyl)isonicotinamide]",1 to 10
13,"CCc1cnc2ccc(Cc3cc(C(=O)NCc4ccc5[nH]cc(Cl)c5c4F)ccn3)cc2c1 [Example 282, N-((3-chloro-4-fluoro-1H-indol-5-yl)methyl)-2-((3-ethylquinolin-6-yl)methyl)isonicotinamide]",< 0.1
14,"CCc1cnc2ccc(Cc3cc(C(=O)NCc4cnc5[nH]cc(Cl)c5c4)ccn3)cc2c1 [Example 281, N-((3-chloro-1H-pyrrolo[2,3-b]pyridin-5-yl)methyl)-2-((3-ethylquinolin-6-yl)methyl)isonicotinamide]",< 0.1
15,"Cc1nc(N)ccc1CNC(=O)c1cc(Cc2cnc3ncc(Cl)cc3c2)ncc1C#N [Example 216, N-((6-amino-2-methylpyridin-3-yl)methyl)-2-((6-chloro-1,8-naphthyridin-3-yl)methyl)-5-cyanoisonicotinamide]",0.1 to 1
16,"CC(=O)Nc1cc(C)c(CNC(=O)c2ccnc(Cc3ccc4ncc(Cl)cc4c3)c2)c(C)n1 [Example 193, N-((6-acetamido-2,4-dimethylpyridin-3-yl)methyl)-2-((3-chloroquinolin-6-yl)methyl)isonicotinamide]",1 to 10
17,"Cc1nc(N)cc(C(F)(F)F)c1CNC(=O)c1ccnc(Cc2ccc3ncc(Cl)cc3c2)c1 [Example 165, N-((6-amino-2-methyl-4-(trifluoromethyl)pyridin-3-yl)methyl)-2-((3-chloroquinolin-6-yl)methyl)isonicotinamide]",0.1 to 1

row,Compound,IC50 [µM]
1,"Cc1nc2c(cc1CNC(=O)c1ccnc(Cc3ccc4ncc(Cl)cc4c3)c1)CCN2 [Example 161, 2-((3-chloroquinolin-6-yl)methyl)-N-((6-methyl-2,3-dihydro-1H-pyrrolo[2,3-b]pyridin-5-yl)methyl)isonicotinamide]",0.1 to 1
2,"O=C(NCc1c[nH]c2ncc(Cl)cc12)c1ccnc(Cc2ccc3ncc(Cl)cc3c2)c1 [Example 269, N-((5-chloro-1H-pyrrolo[2,3-b]pyridin-3-yl)methyl)-2-((3-chloroquinolin-6-yl)methyl)isonicotinamide]",1 to 10
3,"Cc1nc(N)ccc1CNC(=O)c1ccnc(Cc2cnc3ncc(Cl)cc3c2)c1 [Example 205, N-((6-amino-2-methylpyridin-3-yl)methyl)-2-((6-chloro-1,8-naphthyridin-3-yl)methyl)isonicotinamide]",< 0.1
4,"Cc1cc(N)nc(C)c1CNC(=O)c1cc(C#N)nc(Cc2ccc3ncc(Cl)cc3c2)c1 [Example 207, N-((6-amino-2,4-dimethylpyridin-3-yl)methyl)-2-((3-chloroquinolin-6-yl)methyl)-6-cyanoisonicotinamide]",< 0.1
5,"Cc1nc2[nH]cc(Cl)c2cc1CNC(=O)c1ccnc(Cc2ccc3ncc(Cl)cc3c2)c1 [Example 191, N-((3-chloro-6-methyl-1H-pyrrolo[2,3-b]pyridin-5-yl)methyl)-2-((3-chloroquinolin-6-yl)methyl)isonicotinamide]",< 0.1
6,"Cc1nc(NCCO)ccc1CNC(=O)c1ccnc(Cc2ccc3ncc(Cl)cc3c2)c1 [Example 252, 2-((3-chloroquinolin-6-yl)methyl)-N-((6-((2-hydroxyethyl)amino)-2-methylpyridin-3-yl)methyl)isonicotinamide]",> 10
7,"O=C(NCc1ccc2ncc(Cl)cn12)c1ccnc(Cc2ccc3ncc(Cl)cc3c2)c1 [Example 206, N-((3-chloropyrrolo[1,2-a]pyrimidin-6-yl)methyl)-2-((3-chloroquinolin-6-yl)methyl)isonicotinamide]",> 10
8,"Cc1nc(N)ccc1CNC(=O)c1ccnc(Cc2cc(-c3nnn[nH]3)c3ncc(Cl)cc3c2)c1 [Example 273, N-((6-amino-2-methylpyridin-3-yl)methyl)-2-((3-chloro-8-(1H-tetrazol-5-yl)quinolin-6-yl)methyl)isonicotinamide]",0.1 to 1
9,"Cc1cc(C)c(CNC(=O)c2ccnc(Cc3ccc4ncc(Cl)cc4c3)c2)c(C)n1 [Example 194, 2-((3-chloroquinolin-6-yl)methyl)-N-((2,4,6-trimethylpyridin-3-yl)methyl)isonicotinamide]",1 to 10
10,"O=C(NCc1ccc2[nH]cc(Cl)c2c1F)c1ccnc(Cc2ccc3ncc(N4CCCC4)cc3c2)c1 [Example 311, N-((3-chloro-4-fluoro-1H-indol-5-yl)methyl)-2-((3-(pyrrolidin-1-yl)quinolin-6-yl)methyl)isonicotinamide]",0.1 to 1
11,"O=C(NCc1cc2c(Cl)c[nH]c2cc1F)c1ccnc(Cc2ccc3ncc(N4CCCC4)cc3c2)c1 [Example 307, N-((3-chloro-6-fluoro-1H-indol-5-yl)methyl)-2-((3-(pyrrolidin-1-yl)quinolin-6-yl)methyl)isonicotinamide]",0.1 to 1
12,"Cc1cnc2c(C(C)(C)O)cc(Cc3cc(C(=O)NCc4c(C)cc(N)nc4C)ccn3)cc2c1 [Example 318, N-((6-amino-2,4-dimethylpyridin-3-yl)methyl)-2-((8-(2-hydroxypropan-2-yl)-3-methylquinolin-6-yl)methyl)isonicotinamide]",< 0.1
13,"O=C(NCc1cnc2ncc(Cl)cn12)c1ccnc(Cc2ccc3ncc(Cl)cc3c2)c1 [Example 256, N-((6-chloroimidazo[1,2-a]pyrimidin-3-yl)methyl)-2-((3-chloroquinolin-6-yl)methyl)isonicotinamide]",> 10
14,"CCc1cnc2ccc(Cc3cc(C(=O)NCc4cc5c(Cl)c[nH]c5cc4F)ccn3)cc2c1 [Example 280, N-((3-chloro-6-fluoro-1H-indol-5-yl)methyl)-2-((3-ethylquinolin-6-yl)methyl)isonicotinamide]",< 0.1
15,"Nc1cnc2ccc(Cc3cc(C(=O)NCc4cnc5[nH]cc(Cl)c5c4)ccn3)cc2c1 [Example 300, 2-((3-aminoquinolin-6-yl)methyl)-N-((3-chloro-1H-pyrrolo[2,3-b]pyridin-5-yl)methyl)isonicotinamide]",1 to 10
16,"CC1=CC2C=NN(Cc3cc(C(=O)NCc4c(C)cc(N)nc4C)ccn3)C2C=C1 (stereo not drawn) [Example 201, N-((6-amino-2,4-dimethylpyridin-3-yl)methyl)-2-((5-methyl-3a,7a-dihydro-1H-indazol-1-yl)methyl)isonicotinamide]",< 0.1
